Here are results for 4 molecules from US5874438A, “2,2'-bridged bis-2,4-diaminoquinazolines” (Bayer Aktiengesellschaft, priority 1996, dated 1999).

Experiment [1] relates to potassium channel (PC12 cells). Nature of the experiment: Non-radioactive Rb^+ efflux assay for the identification of potassium channel modulators. The experiment is classed as cell-based. Particulars: 50 mM KCl stimulation, 10 min. As to the method:
(§1) The compounds according to the invention are ligands for apamin-sensitive potassium channels. This can be shown by studying the affinity for apamine binding sites, e.g. in bovine cerebral membranes.
2) Non-radioactive Rb^+ efflux assay for the identification of potassium channel modulators
The potassium in PC12 cells is exchanged with rubidium, which is not present in the cells. This exchange is performed by incubating the cells over a period of 4 h in a physiological buffer containing 5.4 mM RbCl without KCl. This rubidium subsequently serves as a tracer for potassium.
The cells laden with Rb^+ in this way are washed three times and then stimulated by depolarization with 50 mM KCl to open potassium channels (10 min), causing Rb^+ to flow out of the cells into the supernatant according to the concentration gradient. The rubidium contents in the cell supernatant and in the residual cells after they have been lysed with 1% Triton X-100 are then determined by means of atomic absorption spectroscopy. The relative proportion of rubidium in the cell supernatant (=Rb^+ efflux) is used as a measure of the potassium channel activity.
The effect of substances on the channel activity is measured by co-incubating the test substance over the ten-minute stimulation period and determining its effect on the Rb^+ efflux in the manner described above.

Experiment [2] has as its target apamin-sensitive potassium channels. Nature of the experiment: Binding of ^125 I-apamin to bovine cerebral membrane. Particulars: ^125 I-apamin 30 pM, calf hippocampus membranes, 60 min on ice. As to the method: as §1
1) Binding of ^125 I-apamin to bovine cerebral membrane
Calf brains were obtained from the local abattoir. The hippocampus was prepared on ice and a membrane suspension was made up by homogenization twice in buffer (100 mM Tris-HCl, KCl 5 mM, pH 7.4) and centrifugation at 43,000×g. In a total volume of 500 μl, the incubation mixture contained 200 μg of membrane protein, 30 pM ^125 I-apamine and test substances in the concentration range 1×10^-9 to […]. The non-specific binding of ^125 I-apamin was determined in the presence of 1×10^-7 M unlabelled apamin.
After preincubation for 30 min at room temperature (test substances and membrane homogenate), the samples were placed on ice for 10 min before the radioligand was added. The main incubation time was 60 min on ice. When the reaction time had elapsed, an excess of ice-cooled incubation buffer was added to each sample and the mixture was filtered with suction through cellulose acetate/nitrate membrane filters. The amount of bound ^125 I-apamin was measured with a gamma counter.

Turning to `CCN(CC)c1nc(NCC23C=CC(CC2)C2CN(c4nc(N(CC)CC)c5ccccc5n4)CC23)nc2ccccc12.Cl.Cl` (stereo not shown) [Example 2, N^2-[4-(4-Diethylamino-quinazolin-2-yl)-4-aza-tricyclo[5.2.2.0^2,6]undec-8-en-1-yl-methyl]-N^4,N^4-diethyl-quinazoline-2,4-diamine dihydrochloride], in experiment [1], the “% inhibition of the Rb efflux at a test concentration of 10 μM” value was found to be 72%.

In the case of `CCN(CC)c1nc(N2CCCN(c3nc(N(CC)CC)c4cc(Cl)ccc4n3)CC2)nc2ccc(Cl)cc12` [Example 4, 1,4-Bis-(6-chloro-4-diethylamino-2-quinazolyl)-1,4-diazacycloheptane], in experiment [2], the affinity, expressed as Ki, was 0.14 µM.

Take `CCN(CC)c1nc(N2CCCN(c3nc(N(CC)CC)c4ccccc4n3)CC2)nc2ccccc12` [Example 3, 1,4-Bis-(4-diethylamino-2-quinazolyl)-1,4-diazacycloheptane]: the “% inhibition of the Rb efflux at a test concentration of 10 μM” value in experiment [1] is reported as 63%.

For `CCN(CC)c1nc(N2CCCN(c3nc(N(CC)CC)c4ccccc4n3)CCC2)nc2ccccc12` [Example 1, 1,5-Bis-(4-diethylaminoquinazolin-2-yl)-[1,5]-diazoxane], in experiment [2], the affinity corresponds to a Ki of 0.34 µM.
